Reference: patent US20150299659A1, “MUSCLE CELL PRODUCTION” (Monash University, priority 2014, published 2015)

Tests used:
Format in all cases: cell-based, human
[1] = tested on: hPSCs; assay: CHIR concentration optimisation for differentiation of hPSCs towards a myogenic phenotype
Method: Experiments were performed using all four hPSC lines. When colony size reached >600 μm in diameter and colony density on the plate was approximately 30-40%, we induced differentiation of hPSC by switching the culture medium from mTESR1 to a chemically defined, serum-free medium DMEM-F12 supplemented with insulin-transferrin-selenium (ITS) (all from Sigma-Aldrich, St. Louis, Mo.). […] Culture medium was then replaced by ITS containing 20 ng/ml of FGF2 (Miltenyi Biotech) for a further 14 days. For each experimental control condition, hPSCs differentiation was induced as follows: 1) CHIR only: ITS medium containing 3 μM CHIR from days 0-4, followed by ITS medium only until day of analysis; and 2) FGF2 only: ITS medium only between days 0-4, followed by ITS medium containing 20 ng/ml FGF2 for 14 days. Medium was replaced daily until the day of the analysis. Human PSCs were first exposed to 3 μM CHIR for 4 days, and then the small molecule was replaced with 20 ng/ml of FGF2 for an additional 2 weeks (FIG. 2A). To optimize the differentiation of hPSCs towards a myogenic phenotype, different CHIR concentrations were tested. […] The FGF signaling pathway has been identified to regulate several developmental processes of muscle formation. […]

[2] = tested on: hPSCs; assay: Immunocytochemical quantification of muscle cells in unsorted hPSC cultures; details: exposure to CHIR for up to 10 days
Method: Experiments were performed using all four hPSC lines. When colony size reached >600 μm in diameter and colony density on the plate was approximately 30-40%, we induced differentiation of hPSC by switching the culture medium from mTESR1 to a chemically defined, serum-free medium DMEM-F12 supplemented with insulin-transferrin-selenium (ITS) (all from Sigma-Aldrich, St. Louis, Mo.). […] Culture medium was then replaced by ITS containing 20 ng/ml of FGF2 (Miltenyi Biotech) for a further 14 days. For each experimental control condition, hPSCs differentiation was induced as follows: 1) CHIR only: ITS medium containing 3 μM CHIR from days 0-4, followed by ITS medium only until day of analysis; and 2) FGF2 only: ITS medium only between days 0-4, followed by ITS medium containing 20 ng/ml FGF2 for 14 days. […]
For cytospin preparations of FACS sorted populations, cells were spun onto glass slides using Cytospin 4 (Shandon, Thermofisher, Waltham, Mass.). […] Images were analyzed with Nikon NIS-Elements 3.2 software. […]
Following withdrawal of FGF2 and a further 17 days of culture in ITS medium alone areas with skeletal muscle cells were scored in treated culture dishes, prior to FACS analysis and identified by immunocytochemistry as PAX3+ and PAX7+ precursors (FIG. 2B) (Relaix et al (2005) Nature 435:948-953) and bipolar skeletal myocytes, positive for myogenin and sarcomeric myosin (MF20) (FIG. 2C).

[3] = tested on: hPSCs; assay: FACS quantification of myogenic cell populations from differentiated hPSCs; details: for percentage of CXCR4+/C-MET+ and ACHR+ populations compared to CHIR+FGF2 cultures: single-agent conditions (CHIR only or FGF2 only)
Method: Experiments were performed using all four hPSC lines. When colony size reached >600 μm in diameter and colony density on the plate was approximately 30-40%, we induced differentiation of hPSC by switching the culture medium from mTESR1 to a chemically defined, serum-free medium DMEM-F12 supplemented with insulin-transferrin-selenium (ITS) (all from Sigma-Aldrich, St. Louis, Mo.). Starting at day 0 of differentiation, cells were cultured in the presence of 3 μM CHIR 99021 (Miltenyi Biotech, Auburn, Calif.) for 4 days. Culture medium was then replaced by ITS containing 20 ng/ml of FGF2 (Miltenyi Biotech) for a further 14 days. For each experimental control condition, hPSCs differentiation was induced as follows: 1) CHIR only: ITS medium containing 3 μM CHIR from days 0-4, followed by ITS medium only until day of analysis; and 2) FGF2 only: ITS medium only between days 0-4, followed by ITS medium containing 20 ng/ml FGF2 for 14 days. Medium was replaced daily until the day of the analysis.
(§1) Cells were dissociated with 0.05% trypsin or TrypLE Select (Invitrogen, Carlsbad, Calif.) to a single cell suspension and incubated with the appropriate fluorochrome-labelled antibodies (Table 1) at a concentration of 10^7 cells/ml for 30 minutes on ice. Indirect labelling of HNK and ACHR antibodies was done using goat anti-mouse Alexa Fluor 488 and goat anti-mouse PE (both from Molecular Probes, Invitrogen) as secondary antibodies. Labelled cells were sorted through a BD Influx (five lasers) flow sorter (BD Biosciences) according to the excitation requirements of the fluorochromes. Sorted populations were analyzed using FlowJo software (Tree Star Inc., Ashland, Oreg.).
Data were analyzed by two-way analysis of variance (ANOVA) followed by Bonferroni's post-test to calculate p values. Analyses were performed using statistical software (GraphPad Prism 5.04; GraphPad Software, San Diego, Calif.). Probability values <0.05 were considered statistically significant. Error bars in each figure represent the standard error of the mean of three or more individual experiments. For qPCR data, p values were calculated for changes in expression of markers over time compared to day 0. For quantitative analysis of FACS sorting data, the percentage of myogenic cells relative to the total number of cells were obtained for each experimental culture treatment, and p values were calculated for differences between the means of each experimental condition.

[4] = tested on: hESC (HES3); assay: RT-PCR and marker analysis of dorsal tissue and endoderm in differentiating hPSCs
Method: For cytospin preparations of FACS sorted populations, cells were spun onto glass slides using Cytospin 4 (Shandon, Thermofisher, Waltham, Mass.). Cells were then fixed with 100% cold methanol for 5 minutes and subsequently rehydrated in phosphate buffered solution (PBS) for 15-20 minutes. Cultured cells were fixed with 4% paraformaldehyde for 10 minutes at room temperature and permeabilized with 0.3% Triton X-100 in PBS for 30 minutes. A complete list of primary and fluorochrome-labelled secondary antibodies used in this study is provided in the Supporting Information (Table 1). Incubations with primary and subsequently secondary antibodies were performed in Incubation Buffer (0.1% BSA, 2% FBS, 0.1% Triton X-100 in PBS) for 40 minutes at 37° C. Image acquisition was performed on an inverted Nikon Eclipse Ti epifluorescence microscope with the appropriate filter sets using single channel acquisition on a Nikon Digital sight DS-U2 camera. Images were analyzed with Nikon NIS-Elements 3.2 software. All immunofluorescence images are representative of one individual experiment. […]
Total RNA was extracted using RNeasy Mini kit (Qiagen, Hilden, Germany), and DNAse I treatment (Qiagen) was performed to avoid genomic DNA contamination. […] The inventors optimized the PCR conditions and determined the linear amplification range for each primer by varying annealing temperature and cycle number. […]

[5] = tested on: hESC HES3; assay: Immunocytochemistry of cytospin preparations of sorted cells
Method: as §1
For cytospin preparations of FACS sorted populations, cells were spun onto glass slides using Cytospin 4 (Shandon, Thermofisher, Waltham, Mass.). Cells were then fixed with 100% cold methanol for 5 minutes and subsequently rehydrated in phosphate buffered solution (PBS) for 15-20 minutes. Cultured cells were fixed with 4% paraformaldehyde for 10 minutes at room temperature and permeabilized with 0.3% Triton X-100 in PBS for 30 minutes. A complete list of primary and fluorochrome-labelled secondary antibodies used in this study is provided in the Supporting Information (Table 1). […] Images were analyzed with Nikon NIS-Elements 3.2 software. […]

Row | Compound | toxicity to differentiating hPSCs ([1]; CHIR concentration >3 μM) | induction of myogenic phenotype ([1]; CHIR doses of <3 μM) | muscle derivation after prolonged exposure [2] | myogenic induction of hPSCs ([3]; CHIR only, 3 μM days 0-4, then ITS medium only) | percentage of CXCR4+/C-MET+ and ACHR+ populations compared to CHIR+FGF2 cultures [3] | expression of dorsal markers SOX10 and LMX1a (RT-PCR) ([4]; day 10 of hESC (HES3) differentiation) | generation of endoderm cells ([4]; lack of specific endodermal markers in the cultures) | cell fate of CXCR4+/C-MET− and CXCR4−/C-MET+ fractions compared to CHIR+FGF2 ([3]; FGF2 only, absence of CHIR treatment) | phenotype of sorted CXCR4+/C-MET− cells [5] | phenotype of sorted CXCR4−/C-MET+ cells [5]
1 | Cc1c[nH]c(-c2cnc(NCCNc3ccc(C#N)cn3)nc2-c2ccc(Cl)cc2Cl)n1 [CHIR, CHIR 99021] | High toxicity | inefficient induction | no muscle cells were identified | sufficient for myogenic induction | Reduction in the percentage | expressed only in CHIR (GSK3β inhibitor) treated cells | not permissive for the generation of endoderm cells | – | – | –
2 | FGF2: fibroblast growth factor, used at 20 ng/ml to expand the muscle precursor compartment | – | – | – | – | almost complete loss | – | – | fundamental shift from a myogenic to a non-myogenic cell fate | complete switch towards SOX1 expression | PAX3+ and PAX7+ cells are not present
